Among the test systems are HCT-116 colon; SNB-75 CNS; RPMI-8226 leukemia; HOP-92 NSCLC; SF-268 CNS; M14 melanoma; HOP-62 NSCLC; NCI-H226 lung; NCI-H522 lung; CCRF-CEM leukemia; OVCAR-3 ovarian.
Test in all cases: DTP human tumour cell line panel, 48 h

One may read the TGI as the concentration at which net growth stops. Read a low TGI as more potent growth arrest.

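Method: 48-hour compound exposure of cells in 96-well plates, five concentrations, linear interpolation of endpoints. TGI marks complete inhibition of growth.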

With `CCOC(=O)COC1=Nc2cc(OC)c(OC)c3nc(Cl)cc(c23)C1=O`, the TGI in the assay on HCT-116 colon is 3.1 µM; in the assay on SNB-75 CNS, 5.87 µM; in the assay on RPMI-8226 leukemia, over 100 µM; with HOP-92 NSCLC, 3.22 µM; in the assay with SF-268 CNS it was 6.83 µM; with M14 melanoma, 3.08 µM. In addition, the TGI amounted to 7.97 µM in the assay with HOP-62 NSCLC, 28.6 µM with NCI-H226 lung and 3.25 µM in the assay with NCI-H522 lung.

With `COC(C[C@H]1CCCC[C@]1(O)/C(=C\CO[Si](C(C)C)(C(C)C)C(C)C)Sc1ccccc1)OC`, the TGI is 85.1 µM in the assay with HCT-116 colon; over 100 µM in the assay on CCRF-CEM leukemia; 98.9 µM in the assay on SNB-75 CNS; 38.4 µM in the assay with RPMI-8226 leukemia; 68.8 µM with HOP-92 NSCLC; over 100 µM in the assay with SF-268 CNS. In addition, the TGI with M14 melanoma is over 100 µM; in the assay on HOP-62 NSCLC, over 100 µM; with NCI-H226 lung it was 62.4 µM; with NCI-H522 lung it was 39.6 µM.

`N#CC(NNC(=O)c1ccccc1O)c1ccc(O)cc1` (stereo not given): the TGI in the assay on HCT-116 colon is over 100 µM; in the assay on CCRF-CEM leukemia it was over 100 µM; in the assay on RPMI-8226 leukemia, over 100 µM; in the assay with HOP-92 NSCLC it was over 100 µM; in the assay on SF-268 CNS it was over 100 µM; in the assay on OVCAR-3 ovarian, 74 µM. Besides, the TGI in the assay on M14 melanoma is over 100 µM; in the assay with HOP-62 NSCLC, over 100 µM; in the assay on NCI-H226 lung, 55.1 µM; in the assay with NCI-H522 lung it was over 100 µM.

Regarding `CC(=O)c1cc(S(=O)(=O)c2ccc(O)c(C(C)=O)c2)ccc1O`, the TGI in the assay on HCT-116 colon, in the assay on CCRF-CEM leukemia, in the assay with RPMI-8226 leukemia, in the assay on HOP-92 NSCLC, in the assay with SF-268 CNS and in the assay on OVCAR-3 ovarian was over 100 µM in each case. The TGI in the assay with M14 melanoma, with HOP-62 NSCLC, with NCI-H226 lung and with NCI-H522 lung was over 100 µM in each case.

Regarding `COc1ccc(Nc2nc(NNC(=O)Cc3ccccc3)nc(NNC(=O)c3ccncc3)n2)cc1`, the TGI in the assay on HCT-116 colon, in the assay with CCRF-CEM leukemia, with SNB-75 CNS, in the assay with HOP-92 NSCLC, with SF-268 CNS and with OVCAR-3 ovarian was over 10 µM in each case. For the same compound, the TGI in the assay with M14 melanoma, with HOP-62 NSCLC and with NCI-H522 lung was over 10 µM in each case.

On to `Oc1ccc(O)c(Sc2nnc(CCCCCCCCc3nnc(Sc4cc(O)ccc4O)o3)o2)c1`, for which the TGI in the assay with HCT-116 colon is 32.5 µM; with SNB-75 CNS, over 100 µM; with RPMI-8226 leukemia, over 100 µM; in the assay with HOP-92 NSCLC it was 65.7 µM; with SF-268 CNS it was over 100 µM; in the assay with M14 melanoma it was over 100 µM. Further, the TGI with HOP-62 NSCLC was over 100 µM; with NCI-H226 lung, over 100 µM; with NCI-H522 lung it was 55 µM.

On to `COc1ccc(/C=N/N=C(\N)NO)c(OC)c1OC`, for which the TGI with HCT-116 colon is 75.5 µM; in the assay with CCRF-CEM leukemia, 76.1 µM; in the assay with RPMI-8226 leukemia, over 100 µM; in the assay with HOP-92 NSCLC, 71.2 µM; with SF-268 CNS it was over 100 µM; with OVCAR-3 ovarian, 67.3 µM. The concentration for total growth inhibition (TGI) was over 100 µM in the assay with M14 melanoma, over 100 µM in the assay on HOP-62 NSCLC, 74.3 µM in the assay on NCI-H226 lung and over 100 µM with NCI-H522 lung.

Consider `O=C(O)Cn1ncn(NC(=O)Cc2ccccc2)c1=S`, for which the TGI in the assay on HCT-116 colon, in the assay with CCRF-CEM leukemia, in the assay with SNB-75 CNS, in the assay with RPMI-8226 leukemia, with HOP-92 NSCLC and in the assay on SF-268 CNS was over 10 µM in each case. The TGI in the assay with OVCAR-3 ovarian, with M14 melanoma, with HOP-62 NSCLC and in the assay on NCI-H522 lung was over 10 µM each time.

As for `COc1cccc(OC/C(N=Cc2ccncc2)=N/NC(=O)c2ccncc2)c1`, the TGI with HCT-116 colon, in the assay on CCRF-CEM leukemia, in the assay with RPMI-8226 leukemia, in the assay on HOP-92 NSCLC, in the assay with SF-268 CNS and with OVCAR-3 ovarian was over 100 µM in each case. Besides, the TGI with M14 melanoma, with HOP-62 NSCLC, in the assay with NCI-H226 lung and in the assay on NCI-H522 lung was over 100 µM in each case.

`Cc1c(Cl)c(=O)oc2cc(OCC(O)COC(C)C)ccc12` (stereo not given): the TGI with HCT-116 colon, in the assay on CCRF-CEM leukemia, in the assay on RPMI-8226 leukemia, in the assay on HOP-92 NSCLC, in the assay with SF-268 CNS and in the assay with OVCAR-3 ovarian was over 100 µM each time. Further, the TGI in the assay with M14 melanoma is 92.4 µM; with HOP-62 NSCLC, over 100 µM; with NCI-H522 lung, over 100 µM.

Consider `Cn1cnc(/C=C/C#N)c1`, for which the TGI in the assay with CCRF-CEM leukemia, in the assay with SNB-75 CNS, with HOP-92 NSCLC, in the assay with SF-268 CNS, in the assay with OVCAR-3 ovarian and in the assay on M14 melanoma was over 100 µM throughout. The TGI in the assay on HOP-62 NSCLC, in the assay on NCI-H226 lung and in the assay on NCI-H522 lung was over 100 µM in each case.

Take `COC(C/C=C\C=C\CC/C=C/CC(C)/C=C/C(=C\C(=O)O)CC(=O)O)/C(C)=C\C=C(/C)C(=O)O` (stereo not given): the TGI in the assay with HCT-116 colon, in the assay on CCRF-CEM leukemia, with SNB-75 CNS, in the assay with RPMI-8226 leukemia, with HOP-92 NSCLC and with SF-268 CNS was over 100 µM each time. For the same compound, the TGI in the assay on OVCAR-3 ovarian, in the assay on M14 melanoma, in the assay with HOP-62 NSCLC and in the assay with NCI-H522 lung was over 100 µM in each case.

Consider `Cc1ccc(Cl)c2c(=O)cc(-c3ccccc3)[nH]c12`, for which the TGI is over 100 µM in the assay on HCT-116 colon; over 100 µM in the assay with CCRF-CEM leukemia; 87.1 µM in the assay with SNB-75 CNS; over 100 µM with RPMI-8226 leukemia; over 100 µM in the assay with HOP-92 NSCLC; over 100 µM in the assay with SF-268 CNS. Moreover, the TGI in the assay on M14 melanoma, in the assay on HOP-62 NSCLC, in the assay on NCI-H226 lung and with NCI-H522 lung was over 100 µM in each case.

Source of the values: PubChem BioAssay (NCI).
